Assay results from patent US20090104637A1, “Method and Apparatus for Assaying Blood Clotting” (priority 2006, published 2009).
Marks after values point to notes of the source that are not given here.

Experiments:
[1] = cited from earlier work
[2] = tested on: normal pooled plasma and donor plasma; assay: On-chip APTT assay with argatroban titration, plug-based microfluidic device, plasma, 37° C.; format: biochemical, human
donor's whole blood = assay: On-chip APTT assay with argatroban titration, plug-based microfluidic device, whole blood, 23° C.; format: biochemical, human; details: APTT with argatroban / baseline APTT
human α-thrombin = target: T1, human α-thrombin (Homo sapiens, UniProt P00734); details: 37° C., 50 mM Tris-HCl, pH 8.0, 0.15 M NaCl, 1 mM CaCl2, 1 mg/mL BSA; cited from earlier work
T1 construct: A fluorogenic substrate for human α-thrombin

[3] = tested on: activated protein C (aPC); assay: Activated protein C (aPC) production from Egg PC lipid coated surfaces with reconstituted thrombomodulin; format: biochemical
Source text: It has been proposed that clot propagation is regulated by thrombomodulin (TM), an inhibitor of clotting located at on the walls of vessels near sites of vascular damage. It has been shown that clot propagation is reduced when TM is homogenously mixed into blood plasma. To mimic the localization of TM on vessel walls, TM was incorporated at the channel walls and tested if this TM was sufficient to stop clot propagation. The inventors incorporated TM into the inert phospholipid surface by forming inert lipid vesicles with reconstituted TM (lipid:TM) and by using the procedure described above to coat the channel walls.
Control experiments verified TM activity on the channel walls was on the same order of magnitude as previously measured for a monolayer of endothelial cells. Measured TM activities are shown in Table 2, which illustrates the quantification of activated protein C (aPC) production from Egg PC lipid coated surfaces with reconstituted thrombomodulin (TM). Corresponding velocities of clot propagation are shown.

human blood plasma = assay: Velocity of clot propagation in a microfluidic channel in the absence of flow; format: biochemical
Source text: To test the prediction that clots propagate as a reactive front with a constant velocity, the inventors used a microfluidic system to regulate and observe clotting in human blood plasma. This system was fabricated in poly(dimethylsiloxane) (PDMS).
FIG. 22 illustrates measurement of the propagation of a blood clot through a microfluidic channel in the absence of flow. Clots propagate with a similar velocity, Fv, in the absence and presence of a membrane-bound inhibitor of clotting, thrombomodulin (TM), on the channel wall. FIG. 22a is a schematic drawing of the procedure for initiating and monitoring clot propagation in a microfluidic device. […] FIG. 22b is a fluorescence microphotograph of a microfluidic device showing that lipids with reconstituted TF (lipid-TF) can be localized to a specific section of a channel in a background of inert lipids. FIG. 22c is a time-lapse fluorescence microphotographs showing position of the clot at 0, 40, and 80 min after plasma was introduced into the channel.
Clot initiation and propagation were spatially separated by patterning the walls of the same channel with different phospholipids (FIG. 22a). […] Clotting was monitored using bright-field microscopy to detect fibrin formation and fluorescence microscopy to detect thrombin-induced cleavage of a peptide-modified coumarin dye. […]

[4] = tested on: normal pooled plasma (NPP); assay: Initiation of clotting on patches of TF-reconstituted bilayers (timescale of reaction, threshold patch size); format: biochemical, human
Procedure: Reconstituting tissue factor (TF) to obtain clot-promoting vesicles. TF was reconstituted into mixed vesicles of DLPC/PS/Texas Reds DHPE (79.5/20/0.5 mole percents) at a concentration of 1.25 mg/mL in 1×HEPES-buffered saline/Ca^2+ buffer. For experiments in FIGS. 17, 18, and 19 the TF concentration in the vesicle solution was 0.40 nM (TF:lipid ratio of 2.5×10^−7). Assuming that all the TF was incorporated into the vesicles, the calculated surface concentration would be 0.08 fmol/cm^2. For experiments in Table 1, a final concentration of 0.16 nM of TF (TF:lipid ratio of 1×10^−7) was used. After addition of TF to the vesicle solution, the solution was incubated at 37° C. for 30 min and then stored at 12° C. The vesicles were used within 18 hrs.
Generating patches by backfilling clot-promoting lipids into the photo-removed regions of bilayer. To generate the clot-promoting patches, the patterned bilayers were backfilled with 30 μL of the TF-reconstituted vesicle solution (1.25 mg/mL vesicles in PBS buffer) and allowed to incubate for 4 min at room temperature. Phospholipid bilayers containing active TF have been prepared previously (Contino et al., 1994, Biophys. J. 67: 1113-1116 (1994)). Excess vesicles were removed by vigorous rinsing with a solution of NaCl (150 mM). Patterned bilayers were used immediately in clotting experiments.
Recalcifying the blood plasma samples and adding the thrombi-sensitive dye. All blood plasma samples were recalcified by adding a solution of CaCl2 containing the thrombin-sensitive fluorescent dye, Boc-Asp(OBzl)-Pro-Arg-MCA, (CaCl2, 40 mM; NaCl, 90 mM; and Boc-Asp(OBzl)-Pro-Arg-MCA, 0.4 mM). At the start of each experiment, the plasma and the solution containing CaCl2 were mixed 3:1 by volume. Clotting was detected by the appearance of fibrin using bright field microscopy, and by the appearance of fluorescence signal generated when 4-Methyl-Coumaryl-7-Amine (MCA) was cleaved from Boc-Asp(OBzl)-Pro-Arg-MCA by thrombin.
Inhibiting the factor XII pathway with corn trypsin inhibitor. For experiments measuring clot times for the TF pathway (all experiments using phospholipid bilayers and reconstituted TF), the factor XII (contact) pathway was inhibited with corn trypsin inhibitor (CTI). […]
The threshold patch size of donor platelet rich plasma and normal pooled plasma was measured at 24° C. and 37° C. Clot times were measured on patches presenting clotting stimuli (TF-reconstituted bilayers) in arrays containing patches of different sizes (Table 1). In a single experiment, the clot time on seven different patch sizes was measured. […] Clot time vs. patch size for platelet rich plasma (PRP) from donors was measured.

For `O=Nc1ccccc1C(=O)O` [2-nitrosobenzoic acid], the pKa [1] is given as under 4.

In the case of `CC1CNc2c(cccc2S(=O)(=O)N[C@@H](CCCNC(=N)N)C(=O)N2CC[C@@H](C)C[C@@H]2C(=O)O)C1` (some centres unmarked) [argatroban], the APTT ratio ([2]; argatroban 0.5 μg/mL) is reported as “about 2.1”, the APTT ratio ([2]; argatroban 1.0 μg/mL) is reported as 2.7 and the APTT ratio (donor's whole blood; argatroban 0.5 μg/mL) is reported as 2.3. For the same molecule, the APTT ratio (donor's whole blood; argatroban 1.0 μg/mL) was 2.8.

In the case of “t-butyloxycarbonyl-β-benzyl-L-aspartyl-L-prolyl-Larginine-4-methyl-coumaryl-7-amide”, the Km (human α-thrombin) is listed as 11 µM and the kcat (human α-thrombin) is listed as 160 s⁻¹.

With thrombomodulin [TM] the aPC production ([3]; Glass, 37 ° C., TM:Egg PC ratio 1:7560) was 10 pmol min^−1 m^−2, the aPC production ([3]; Glass, 37 ° C., TM:Egg PC ratio 1:75600) was 0.3 pmol min^−1 m^−2 and the aPC production ([3]; PDMS, 25 ° C., TM:Egg PC ratio 1:7560) was 5* pmol min^−1 m^−2. The aPC production ([3]; PDMS, 25 ° C., TM:Egg PC ratio 1:75600) was 10 pmol min^−1 m^−2, the “Front Velocity” value (human blood plasma; Glass, 37 ° C., TM:Egg PC ratio 1:7560, 41 without TM) was 50 μm min^−1 and the “Front Velocity (Fv)” value (human blood plasma; PDMS, 25 ° C., TM:Egg PC ratio 1:75600 (lipid:TM=7.6×10^4), 20 without TM) was 24 μm min^−1.

B1: tissue factor (protein, UniProt P13726 33-295, looked up)
Tissue factor: SGTTNTVAAYNLTWKSTNFKTILEWEPKPVNQVYTVQISTKSGDWKSKCFYTTDTECDLTDEIVKDVKQTYLARVFSYPAGNVESTGSAGEPLYENSPEFTPYLETNLGQPTIQSFEQVGTKVNVTVEDERTLVRRNNTFLSLRDVFGKDLIYTLYYWKSSSSGKKTAKTNTNEFLIDVDKGENYCFSVQAVIPSRTVNRKSTDSPVECMGQEKGEFREIFYIIGAVVFVVIILVIILAISLHKCRKAGVGQSWKENSPLNVS
modifications: in phospholipid bilayers
notes: human recombinant tissue factor reconstituted in phospholipid bilayers, clotting stimulus
With B1 the “threshold patch size, ptr” value ([4]; [TF]=0.16 nM in vesicles) was 160±32 μm, the “timescale of reaction, tR” value ([4]; [TF]=0.16 nM in vesicles) was 206 s and the “threshold patch size, ptr” value ([4]; [TF]=0.40 nM in vesicles) was 75±25 μm. The “timescale of reaction, tR” value ([4]; [TF]=0.40 nM in vesicles) was 30 s.
